Earlier results as cited in patent EP0615447B1, “SLOW-RELEASE FLURBIPROFEN-CONTAINING MEDICAMENT AND ITS USE” (ALFATEC-PHARMA GmbH, priority 1991, dated 1993).

Key:
[1] = aqueous medium; compared with the racemate
[2] = in vivo
[3] = water

## CC(C(=O)O)c1ccc(-c2ccccc2)c(F)c1 (racemic) [Pseudoracemat]
[1]
  Auflösungsgeschwindigkeit: wesentlich höher

## CC(C(=O)O)c1ccc(-c2ccccc2)c(F)c1 (racemic) [Flurbiprofen, 2-(2-Fluor-4-biphenylyl)propionsäure]
[2]
  Plasmahalbwertszeit: 3,9 h
[3]
  Löslichkeit in Wasser: 32,5 mg/l
other
  pKA: 4,16
